Results on 3 compounds are retold here after patent US20220096664A1, “STABILIZED FORMULATIONS CONTAINING IODINATED CONTRAST AGENTS AND CYCLODEXTRINS” (Verrow Pharmaceuticals, Inc., priority 2012, published 2022).

“Also recorded” adds a separate entry of the source. Like-named read-outs stand apart in the source and are kept apart here.

The subject of data set [1] is endothelial HMEC cells. The following applies: incubation with sodium or potassium iodide; cited from earlier work.
Data set [2] is described as follows: Photostability: iodide formed after UV light irradiation. Particulars: pH 8. Format: physicochemical. The method, then: Aqueous solutions comprising iodinated contrast agents were prepared and evaluated in a photolysis chamber as described in the ICH guidance document, Q1B Photostability Testing of New Drug Substances and Products, available from the US Food and Drug Administration, incorporated herein by reference. The solutions were placed in 1 cm×1 cm (3 mL) quartz cuvettes having 2 clear sides and 2 sides etched. Lids were placed on the cuvettes and sealed with a wrap of Parafilm® around the joint. The cuvettes were placed in a photolysis chamber, upright on a flat surface beneath and centered between two horizontal 24 inch fluorescent lamps, (GE, black light F20T12, 20 watt for ultraviolet, or Philips F20T12/CW, 20 watt for visible) placed 6 cm apart. The cuvettes were positioned such that their two clear sides were facing the two lamps.
Cuvettes were spaced ˜2 cm from each other, and no closer than 15 cm from the ends of the lamps. This positioning allowed reproducible light exposure to all cuvettes.
(§1) The lamps were switched on and the solutions irradiated for 18 to 24 hours for the ultraviolet (UV) lamps or 72 to 90 hours for the visible (VIS) light lamps. At the end of the selected irradiation time, the cuvettes were removed from the photolysis chamber and mixed by inversion 2-times. The caps were then removed and 40 microliter aliquots taken and diluted with 1 mL of an aqueous solution containing ˜0.9 mg/mL sodium thiosulfate. The thiosulfate solution converted any I2, IO3^−, and I3^− present in the solution tor such that total iodine species could be determined in one assay.
(§2) The diluted solutions were assayed by high pressure liquid chromatography (HPLC) using a 4.6×250 mm, C-18, 5 micron particle size, reversed phase column with detection at 280 nm for the contrast agent and 230 nm for the thiosulfate and the iodide ion (r). A mobile phase of 30:70 methanol:aqueous buffer (50 mM KH2PO4+7 mL/L 40% tetrabutyl ammonium hydroxide) at 0.75 mL/min was used for elution. Injection volume was 20 microliters. External standards were prepared containing each contrast agent, potassium iodide, and sodium thiosulfate solution and analyzed along with the irradiated samples. The results were reported as weight percentage iodide formed (mg iodide/mg contrast agent times 100).
The absorbance readings at 400 nm due to light exposure were plotted against time of exposure and the resulting correlation used to determine the UV and VIS light exposure. A change in absorbance reading of 0.45 was assumed equivalent to 200 watt hours/square meter for the UV light and a change of 0.51 was assumed equivalent to 1.2 million lux hours for the VIS light. The UV lamps provided 6.62 watts/square meter and the VIS lamps provided 7180 lux.
Aqueous solutions were prepared containing 50 mM contrast agent by diluting commercially available solutions with water. Tromethamine HCl buffer (TRIS), was added to solutions as necessary to increase the TRIS content to that of the commercial product before dilution.
SCD was added to the solutions at various mole ratios and the pH of the solutions adjusted to 7.4 with 0.1N hydrochloric acid or 0.1N sodium hydroxide. The solutions were irradiated with UV light for 18 hours (119 watt hours/m^2) then processed, analyzed and reported as in Example 2. The SCDs evaluated were sulfobutyl ether beta-cyclodextrin with an average degree of substitution of 7 (SBE-704CD), and two 2-hydroxypropyl beta-cyclodextrin derivatives having 6.3 (HP-6.3n/CD) and 4.3 (HP-4.3-βCD) average degrees of substitution.
Aqueous solutions were prepared containing 50 mM contrast agent by diluting commercially available solutions with distilled water. Tromethamine HCl buffer (TRIS), was added to some solutions to increase the buffer content.
The solutions were divided and SBE-7-CD added to one aliquot at a contrast agent:SCD mole ratio of 1:1. The pH of the solutions was adjusted to 5, 6, 7, 7.4 or 8 with 0.1N hydrochloric acid or sodium hydroxide. […]

For data set [3] the following is noted: contrast media solutions; cited from earlier work.
The subject of data set [4] is Beagle dog. Put plainly: Cardiovascular electrophysiology and hemodynamics after injection into the left main coronary artery. Format: in vivo. The method, then:
Aqueous formulations were prepared containing 755 mg/mL iohexol without (formulation 1) or with (formulation 2) sulfobutylether β-cyclodextrin, sodium salt (average degree of substitution-7) at an iohexol:SCD mole ratio of 1:0.025. The addition of the SCD added 154 mM sodium to the solution as its counterion. The formulations also contained 0.1 mg/mL edetate calcium disodium hydrate, and 1.2 mg/mL tromethamine buffer, with the pH of each solution adjusted to 7.4 with 1N HCl. The solutions were sterilized by filtration through a 0.22 micron filter. […]
The instrumentation provided measurement of right heart pressure, left ventricular pressure, aortic pressure, cardiac output and electrocardiography (ECG). The specific parameters measured were: systolic artery pressure (SAP), mean aortic pressure (MAP), diastolic aortic pressure (DAP), left ventricular systolic pressure (LVSP), left ventricular end diastolic pressure (LVEDP), left ventricle dP/dtmax (an indirect measure of contractile force), left ventricle dP/dtmin, cardiac output (CO), systemic vascular resistance (SVR), pulmonary vascular resistance (PVR), pulmonary artery pressure (PAP), monophasic action potential duration (MAPD30%, 50%, 90%), heart rate (HR), and from the ECG; PR interval, QRS duration, QT/QTc interval, JT/JTc interval (as needed) and arrhythmogenesis.

The format of data set [5] is physicochemical. On the procedure:
as §1, §2
Aqueous solutions were prepared containing 50 mM iodinated contrast agent, 10 mM tromethamine HCl buffer (TRIS), with and without sulfobutylether beta-cyclodextrin with an average degree of substitution-7 (SBE7-β-CD), or 2-hydroxypropyl beta-cyclodextrin with an average degree of substitution of ˜6.3 (HP6.3-β-CD) or ˜4.3 (HP4.3-β-CD). The iohexol solution was prepared by dissolving solid iohexol powder while the other solutions were prepared by diluting commercial formulated products and adding sufficient TRIS buffer to reach 10 mM. The pH of the solutions was adjusted to 7.4 with 0.1N hydrochloric acid.
Aliquots of the solutions were irradiated with visible light for 72 hours (0.52 million lux hours). Other aliquots were autoclaved for 20 minutes at 121° C., cooled to room temperature and then irradiated with ultraviolet light for 18 hours (119 watt hours/m2). The solutions were then processed, analyzed and reported as in Example 2, except that the chromatographic peaks of the contrast agents were evaluated at 300 nm for both samples and standards.
Aqueous solutions were prepared containing 50 mM iohexol, 0, 2.5, 5, 7.5, or 10 mM tromethamine HCl (TRIS) buffer, with and without 2.5 mM sulfobutylether beta-cyclodextrin with an average degree of substitution-7 (SBE7-β-CD). The pH of the solutions was adjusted to 7.4 with 0.1N hydrochloric acid and the solutions were transferred to glass vials. The vials were stoppered, crimp-capped and autoclaved for 20 minutes at 121° C. The pH of the autoclaved solutions was measured after the solutions were at room temperature.
Aliquots of the autoclaved solutions were irradiated with visible light for 72 hours (0.52 million lux hours) and other aliquots irradiated with ultraviolet light for 18 hours (119 watt hours/m2). The solutions were then processed, analyzed and reported as in Example 2, except that the chromatographic peak of the iohexol was evaluated at 300 nm for both samples and standards.
Aqueous formulations were prepared containing iodinated contrast agents at concentrations used commercially in medical procedures. Sulfobutylether-cyclodextrin, sodium salt, average degree of substitution ˜7 (SBE7CD) was added at varying agent:CD mole ratios. The formulations were placed in glass vials, sealed with rubber stoppers and aluminum crimps, and autoclaved at 121° C. for 20 minutes. […]

Data set [6] concerns bovine aortic endothelial cells. The following applies: cited from earlier work.

In the case of `I` [iodide], the “toxicity in cultured endothelial HMEC cells” value in data set [1] is “causes toxicity”.
For the compound `CC(=O)N(CC(O)CO)c1c(I)c(C(=O)NCC(O)CO)c(I)c(C(=O)NCC(O)CO)c1I` (stereo not drawn) [Iohexol, iohexol], in data set [2], the “stabilization against photolysis by UV light” value is reported as “stabilized iohexol against photolysis by UV light”. Besides, the “degradation in solution after exposure to ultraviolet light” value in data set [3] is “formation of iodine and iodide ions”. In addition, the “qualitative alterations in electrocardiographic morphology” value in data set [4] (concomitant with injection into the coronary artery) was “QRS complex widening along with ST segment depression; also recorded: Scattered premature ventricular contractions”. Also, the “ECG morphology returned to normal after the last injection” value in data set [4] (intracoronary) is recorded as “within five minutes”. In data set [5], the “iodide degradant after UV irradiation in the presence of the SCD” value is on record as “Less of the iodide degradant was observed in the presence of the SCD” and the “stabilization against photolysis by visible light irradiation” value is reported as “the SCD also stabilized the solutions against photolysis by visible light irradiation”.
`CN(C(=O)CO)c1c(I)c(C(=O)NCC(O)CO)c(I)c(C(=O)NCC(O)CO)c1I` (stereo not drawn) [iomeprol]: the “toxicity to bovine aortic endothelial cells” value in data set [6] (X-ray irradiated contrast agent) is given as “toxic to bovine aortic endothelial cells”; in data set [6] (non-irradiated contrast agent), “not toxic”.
